Results reported in patent publication US20090233993A1, “COMPOSITIONS AND METHODS FOR INHIBITING GSK3 ACTIVITY AND USES THEREOF” (Burnham Institute for Medical Research, priority 2008, published 2009).

What was measured:
[1] = system: FG01; experiment: FG01 RNA interference in N2aSwe cells; format: cell-based, mouse
Excerpt: Cells were collected for mRNA extraction, reverse-transcription, and PCR amplification with FG01 specific primers to study the knockdown efficiency (upper panel), n=3. Alternatively, cells were lysed and cell lysates subjected to Western blotting for p-CREB, CREB, p-GSK3β, and GSK3β. Aβ in conditioned media was subjected to immunoprecipitation-Western blotting (lower panels). As shown, knockdown of FG01 coincided with a concomitant decrease in GSK3β phosphorylation (inactivation). **: p<0.01. […] Moreover, as PKA is a cAMP-dependent protein kinase, FG01 is likely having this effect through adenylyl cyclase (AC) activation of cAMP.
The mouse FG01 siRNA used was: 5′-[…]-3′ (SEQ ID NO:20). The control siRNA was from Invitrogen. siRNA was transfected into N2a cells using Lipofectamine RNAiMAX reagent (Invitrogen), following the manufacturer's protocol. After FG01 RNA interference, total RNA was extracted from N2a cells by Trizol reagent (Invitrogen). After reverse transcription into first strand cDNA using standard conditions, samples were analyzed independently by real-time PCR using an iCycler iQ with SYBR green supermix (Bio-Rad). The FG01 primer pair used for amplification was: 5′: […] (SEQ ID NO:21) and 3′: […] (SEQ ID NO:22). A pair of β-actin primers served as controls (Zhang et al., 2007).

[2] = system: PKA; experiment: PKA inhibitor H89 treatment of FG01-transfected N2aSwe cells; format: cell-based, mouse; conditions: H89 2 μM, 4 hrs, FG01-transfected N2a/Swe cells
Method: After 48 hr incubation, cell media were changed to Opti-MEM (Invitrogen) containing DMSO or a PKA activity inhibitor H89 (2 μM) and cells were incubated for additional 4 hrs. The cell media were used for Aβ immunoprecipitation-Western blotting and cell lysates were subjected to Western blotting for p-CREB (substrate for PKA) and p-GSK3β. As shown, inhibiting PKA activity with H89 prevented serine phosphorylation of CREB and GSK3β by FG01.
N2aSwe cells were transfected with control vector or FG01 and then equally split. Four hours before collection, cells were treated with the GSK-3 inhibitor lithium chloride (5 mM) or sodium chloride (5 mM, as control). Alternatively, cells were treated with a PKA inhibitor H89 at 10 μM or with DMSO for control.

[3] = downregulation of endogenous FG01 in N2aSwe cells

| Compound | Aβ generation [1, 3] | CREB phosphorylation [1, 3] | GSK-3 activity [1, 3] | GSK3β phosphorylation (inactivation) ([1]; knockdown of FG01 in N2a/Swe cells vs scramble siRNA) | serine phosphorylation of CREB by FG01 [2] | serine phosphorylation of GSK3β by FG01 [2] |
| --- | --- | --- | --- | --- | --- | --- |
| FG01 siRNA: mouse FG01 siRNA 5′-UACUGUUUGUCAUGCCACUUCUGAU-3′ (SEQ ID NO:20) (listed as RNA, chemistry not given here) | increased | dramatically reduced | increased | decrease | – | – |
| O=S(=O)(NCCNC/C=C/c1ccc(Br)cc1)c1cccc2cnccc12 [H89, reference compound] | – | – | – | – | prevented | prevented |
